Reference: PubChem BioAssay AID292 (DTP/NCI, 2004)
“And” between values parts separate entries of the source, which are not always exact repeats. Equal values may be shown once. Toxic doses and inconclusive results are not listed.

Test system: B6C3F1 mice, ip Sarcoma M5076, median survival T/C
Test: NCI In Vivo Anticancer Drug Screen. Data for tumor model Sarcoma M5076 (intraperitoneal) in B6C3F1 mice
Conditions: endpoint: median survival time, schedule: Q04DX004 (ip), higher = longer survival
In short: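 Mice carrying the transplanted tumour received compound treatment. Survival was recorded, and each value is the treated-group measurement divided by that of the vehicle-dosed control group.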

[1] = dose: 25.0 mg/kg/injection, vehicle: saline
[2] = dose: 50.0 mg/kg/injection, vehicle: saline
[3] = dose: 100.0 mg/kg/injection, vehicle: saline
[4] = dose: 25.0 mg/kg/injection, vehicle: saline with Tween-80
[5] = dose: 50.0 mg/kg/injection, vehicle: saline with Tween-80
[6] = dose: 100.0 mg/kg/injection, vehicle: saline with Tween-80
[7] = dose: 200.0 mg/kg/injection, vehicle: saline with Tween-80
[8] = dose: 400.0 mg/kg/injection, vehicle: saline with Tween-80
[9] = dose: 50.0 mg/kg/injection, vehicle: Klucel (hydroxypropylcellulose) (HPC)
[10] = dose: 100.0 mg/kg/injection, vehicle: Klucel (hydroxypropylcellulose) (HPC)
[11] = dose: 200.0 mg/kg/injection, vehicle: Klucel (hydroxypropylcellulose) (HPC)
[12] = dose: 10.0 mg/kg/injection, vehicle: saline
[13] = dose: 20.0 mg/kg/injection, vehicle: saline
[14] = dose: 40.0 mg/kg/injection, vehicle: saline
[15] = dose: 400.0 mg/kg/injection, vehicle: Klucel (hydroxypropylcellulose) (HPC)
[16] = dose: 800.0 mg/kg/injection, vehicle: Klucel (hydroxypropylcellulose) (HPC)
[17] = dose: 3.0 mg/kg/injection, vehicle: saline with Tween-80
[18] = dose: 6.0 mg/kg/injection, vehicle: saline with Tween-80

`COc1ccc(-c2cc(C(=O)Nc3cc(C(F)(F)F)cc(C(F)(F)F)c3)c3ccccc3n2)cc1` was tested, and the T/C (dose: 50.0 mg/kg/injection, vehicle: DMSO) was 101 % of control, the T/C (dose: 100.0 mg/kg/injection, vehicle: DMSO) was 94 % of control and the T/C (dose: 200.0 mg/kg/injection, vehicle: DMSO) was 110 % of control. The T/C (dose: 400.0 mg/kg/injection, vehicle: DMSO) was 111 % of control.
For `c1cn[nH]c1`, the T/C [1] was 93 % of control and 100 % of control, the T/C [2] was 97 % of control and 106 % of control and 107 % of control and the T/C [3] was 103 % of control and 104 % of control and 107 % of control. For the same compound, the T/C (dose: 200.0 mg/kg/injection, vehicle: saline) was 105 % of control and 107 % of control and 110 % of control and the T/C (dose: 400.0 mg/kg/injection, vehicle: saline) was 116 % of control.
In the case of `COc1cc(/C=C/[N+](=O)[O-])cc(Br)c1OC`, the T/C (dose: 12.5 mg/kg/injection, vehicle: saline with Tween-80) is reported as 95 % of control, the T/C [4] is reported as 90 % of control and the T/C [5] is reported as 94 % of control. For the same compound, the T/C [6] was 107 % of control.
`O=C1CCC(=O)N1CO` was tested, and the T/C [5] was 93 % of control, the T/C [6] was 101 % of control and the T/C [7] was 87 % of control. For the same compound, the T/C [8] was 100 % of control and the T/C (dose: 800.0 mg/kg/injection, vehicle: saline with Tween-80) was 97 % of control.
In the case of `O=C(Nc1ccccc1[N+](=O)[O-])C1C(=O)C(=O)N(c2ccccc2[N+](=O)[O-])C1=O` (stereo not given), the T/C [9] is reported as 101 % of control, the T/C [10] is reported as 89 % of control and the T/C [11] is reported as 92 % of control.
For `CC1=Nc2cc(N)nn2C(=O)C1`, the T/C [5] was 96 % of control and the T/C [6] was 99 % of control.
In the case of `O=C1C(=O)C(CN2CCOCC2)=C(N2CCOCC2)C(N2CCOCC2)=C1CN1CCOCC1`, the T/C [4] is reported as 96 % of control, the T/C [5] is reported as 101 % of control and the T/C [6] is reported as 94 % of control. The T/C [7] was 88 % of control and the T/C [8] was 92 % of control.
In the case of `O=C(Nc1ccccc1)c1cc2ccccc2oc1=O`, the T/C (dose: 28.13 mg/kg/injection, vehicle: saline with Tween-80) is reported as 94 % of control and the T/C (dose: 56.25 mg/kg/injection, vehicle: saline with Tween-80) is reported as 92 % of control.
With `Cc1c(N)nc([C@H](CC(N)=O)NC[C@H](N)C(N)=O)nc1C(=O)N[C@H](C(=O)N[C@H](C)[C@@H](O)[C@H](C)C(=O)N[C@H](C(=O)NCCc1nc(-c2nc(C(=O)NCCC[S+](C)C)cs2)cs1)[C@@H](C)O)C(OC1OC(CO)C(O)C(O)C1OC1OC(CO)C(O)C(OC(N)=O)C1O)c1cnc[nH]1` (stereo not given in full) the T/C (dose: 5.0 mg/kg/injection, vehicle: saline) was 94 % of control, the T/C [12] was 94 % of control and the T/C [13] was 109 % of control. The T/C [14] was 106 % of control.
For `COc1ccc(CCN2C(=O)C(=O)N(c3cccc(Cl)c3)C2=O)cc1OC`, the T/C (dose: 43.75 mg/kg/injection, vehicle: Klucel (hydroxypropylcellulose) (HPC)) was 88 % of control, the T/C (dose: 87.5 mg/kg/injection, vehicle: Klucel (hydroxypropylcellulose) (HPC)) was 91 % of control and the T/C (dose: 175.0 mg/kg/injection, vehicle: Klucel (hydroxypropylcellulose) (HPC)) was 88 % of control. For the same compound, the T/C (dose: 350.0 mg/kg/injection, vehicle: Klucel (hydroxypropylcellulose) (HPC)) was 98 % of control and the T/C (dose: 700.0 mg/kg/injection, vehicle: Klucel (hydroxypropylcellulose) (HPC)) was 92 % of control.
For `CCOC(=O)c1c[nH]c2ccc3c(nc(C)n3C)c2c1=O`, the T/C [9] was 101 % of control, the T/C [10] was 104 % of control and the T/C [11] was 101 % of control. The T/C [15] was 98 % of control and the T/C [16] was 103 % of control.
For `COC1C(N)C(OC2C(Oc3cccc4c(O)c5c(=O)oc6ccc(C)c7c(=O)oc(c34)c5c67)OC(C)C(O)C2(C)O)OC(C)C1O` (stereo not given), the T/C (dose: 2.5 mg/kg/injection, vehicle: other) was 153 % of control, the T/C (dose: 10.0 mg/kg/injection, vehicle: DMSO) was 246 % of control and the T/C (dose: 10.0 mg/kg/injection, vehicle: other) was 165 % of control.
In the case of `COc1cccc2sc(-n3c(C)nc4ccccc4c3=O)nc12`, the T/C (dose: 31.25 mg/kg/injection, vehicle: Klucel (hydroxypropylcellulose) (HPC)) is reported as 109 % of control, the T/C (dose: 62.5 mg/kg/injection, vehicle: Klucel (hydroxypropylcellulose) (HPC)) is reported as 94 % of control and the T/C (dose: 125.0 mg/kg/injection, vehicle: Klucel (hydroxypropylcellulose) (HPC)) is reported as 93 % of control. For the same compound, the T/C (dose: 250.0 mg/kg/injection, vehicle: Klucel (hydroxypropylcellulose) (HPC)) was 94 % of control and the T/C (dose: 500.0 mg/kg/injection, vehicle: Klucel (hydroxypropylcellulose) (HPC)) was 95 % of control.
`Cc1ccc(C(=O)Nc2ccc(S(=O)(=O)O)c3cc(S(=O)(=O)O)cc(S(=O)(=O)O)c23)cc1NC(=O)c1cccc(NC(=O)Nc2cccc(C(=O)Nc3cc(C(=O)Nc4ccc(S(=O)(=O)O)c5cc(S(=O)(=O)O)cc(S(=O)(=O)O)c45)ccc3C)c2)c1` was tested, and the T/C [1] was 105 % of control, the T/C [2] was 108 % of control and 109 % of control and the T/C [3] was 112 % of control.
For `N#CC1C(=O)NC(=O)C(C#N)C1c1ccc(C2C(C#N)C(=O)NC(=O)C2C#N)cc1` (stereo not given), the T/C [9] was 100 % of control, the T/C [10] was 97 % of control and the T/C [11] was 100 % of control. For the same compound, the T/C [15] was 96 % of control and the T/C [16] was 100 % of control.
For `COc1cccc(C2C(C#N)C(=O)NC(=O)C2C#N)c1` (stereo not given), the T/C [9] was 99 % of control, the T/C [10] was 102 % of control and the T/C [11] was 98 % of control. The T/C [15] was 95 % of control.
`CN1CCc2c(c3ccccc3c3ccccc23)C1` was tested, and the T/C (dose: 75.0 mg/kg/injection, vehicle: Klucel (hydroxypropylcellulose) (HPC)) was 114 % of control and the T/C (dose: 150.0 mg/kg/injection, vehicle: Klucel (hydroxypropylcellulose) (HPC)) was 122 % of control.
`Cn1c(-c2ccc(/C=N\N3CCN(/N=C/c4ccc(-c5c[n+]6ccsc6n5C)cc4)CC3)cc2)c[n+]2ccsc12` was tested, and the T/C (dose: 1.5 mg/kg/injection, vehicle: saline with Tween-80) was 109 % of control, the T/C [17] was 104 % of control and the T/C [18] was 101 % of control.
For `Cc1c2ccccc2cc2cccc[n+]12`, the T/C [12] was 100 % of control, the T/C [13] was 96 % of control and the T/C [14] was 96 % of control.
In the case of `O=C(Nc1nc(-c2ccccc2)cs1)OCC(Cl)(Cl)Cl`, the T/C [4] is reported as 103 % of control, the T/C [5] is reported as 107 % of control and the T/C [6] is reported as 94 % of control. The T/C [7] was 91 % of control and the T/C [8] was 91 % of control.
For `NC(=O)C1=CC2C3C=CC2(O)C(=O)OC3O1` (stereo not given), the T/C (dose: 7.5 mg/kg/injection, vehicle: Klucel (hydroxypropylcellulose) (HPC)) was 98 % of control, the T/C (dose: 15.0 mg/kg/injection, vehicle: Klucel (hydroxypropylcellulose) (HPC)) was 95 % of control and the T/C (dose: 30.0 mg/kg/injection, vehicle: Klucel (hydroxypropylcellulose) (HPC)) was 101 % of control. The T/C (dose: 60.0 mg/kg/injection, vehicle: Klucel (hydroxypropylcellulose) (HPC)) was 106 % of control.
For `COc1ccc(NC(=O)/N=C2\CN(C(=O)c3c(F)cccc3F)C(=O)N2c2ccc(OC)cc2)cc1`, the T/C [17] was 95 % of control, the T/C [18] was 100 % of control and the T/C (dose: 12.0 mg/kg/injection, vehicle: saline with Tween-80) was 102 % of control. For the same compound, the T/C (dose: 24.0 mg/kg/injection, vehicle: saline with Tween-80) was 95 % of control and the T/C (dose: 48.0 mg/kg/injection, vehicle: saline with Tween-80) was 95 % of control.
`O=c1c(O)c(-c2cc(O)c(O)c(O)c2)oc2cc(O)cc(O)c12` was tested, and the T/C (dose: 75.0 mg/kg/injection, vehicle: saline with Tween-80) was 111 % of control, the T/C (dose: 150.0 mg/kg/injection, vehicle: saline with Tween-80) was 111 % of control and the T/C (dose: 300.0 mg/kg/injection, vehicle: saline with Tween-80) was 101 % of control. The T/C (dose: 600.0 mg/kg/injection, vehicle: saline with Tween-80) was 99 % of control.
With `CCOC(=O)c1ccc2c(=O)[nH]nc(CO)c2c1` the T/C [4] was 99 % of control, the T/C [5] was 99 % of control and the T/C [6] was 99 % of control. The T/C [7] was 101 % of control and the T/C [8] was 94 % of control.
